Reference: paper PMC9966338, “Inhibitory Potential of α-Amylase, α-Glucosidase, and Pancreatic Lipase by a Formulation of Five Plant Extracts: TOTUM-63” (International Journal of Molecular Sciences, 2023)
Like-named read-outs stand apart in the source and are kept apart here.

Experiments:
[1] = biological target: T1, α-Glucosidase (maltase from Saccharomyces cerevisiae) (Saccharomyces cerevisiae, UniProt P53341); experiment: biochemical; format: biochemical
T1 construct: purchased Merck/Sigma-Aldrich
From the text: Chrysanthellin B was purchased from Extrasynthese (Genay, France). 2-(N-morpholino)-ethanesulfonic acid (MES) buffer was purchased from ThermoFisher Scientific (Waltham, Massachusetts, USA). NaN3 was obtained from Carlo Erba Reagents (Val-de-Reuil, France). Pure water was obtained using an Evoqua ultra-pure water production system (Water Technologies, Günzburg, Germany). The RED-NHS protein labeling kit was from NanoTemper Technologies (Munich, Germany).
α-Glucosidase hydrolytic activity was assessed by monitoring the conversion of p-nitrophenyl-α-D-glucopyranoside (PNPg) into p-nitrophenol (PNP). PNP levels were quantified at 405 nm. […] A series of PNP dilutions in buffer was used to generate the standard curve to convert PNP absorbance values into concentrations. The final α-glucosidase concentration corresponded to an activity of 30 µM of PNP/min for negative control without inhibitor. In each microplate well, 20 µL of test products diluted in a 50:50 (v:v) water:ethanol mixture (or 20 µL of this solvent mixture for the negative controls), 20 µL of α-glucosidase in buffer (or 20 µL of buffer for the blanks), and 100 µL of buffer were incubated in a microplate reader at 37 °C for 10 min. Then, 20 µL of PNPg substrate (2.5 mM in buffer) was added to each well to initiate the reaction. A FLUO Star Omega (BMG LabTech, Champigny sur Marne, France) 96-well microplate reader, thermostatically controlled at 37 °C, was used to measure the absorbance at 405 nm, every minute for 30 min. […] (1) % Relative activity=Residual activity/Negative control activity×100

α-glucosidase [2] = conditions: cited from earlier work
α-glucosidase [3] = biological target: T2, α-glucosidase (Saccharomyces cerevisiae, UniProt P53341); experiment: Interactions with α-glucosidase by fluorescence spectrum changes; format: binding; conditions: excitation 285 nm, emission 320–440 nm
T2 construct: purchased Merck/Sigma-Aldrich
Protocol: Potassium phosphate buffer (0.1 M, pH 6.8) was used as the reaction buffer. The final α-glucosidase concentration in the wells was 1.275 mg/mL. For each microplate well, 20 µL of test product in a 50:50 (v:v) water:ethanol mixture (or 20 µL of this solvent mixture for the controls without products), 100 µL of α-glucosidase in buffer (or 100 µL of buffer for the blanks), and 40 µL of buffer were incubated at 25 °C in a microplate reader for 5 min. Then, fluorescence was measured at an excitation of 285 nm and an emission scan ranging from 320 nm to 440 nm.

[4] = biological target: T1, α-Glucosidase (maltase from Saccharomyces cerevisiae); experiment: α-Glucosidase inhibition kinetics (Lineweaver–Burk, SigmaPlot fit); format: biochemical
Protocol: α-glucosidase inhibition kinetics was investigated in vitro using the method described in Section 4.2.1. Inhibition models were determined by analysis of the Lineweaver–Burk plots using four concentrations of substrate and four concentrations of test products (including a “0”, without inhibitor). All initial rates were fitted to all enzymatic kinetic models with one substrate and one inhibitor provided by the Enzyme Kinetics Module of Sigma Plot 12 (Systat Software Inc., San Jose, CA, USA), using non-linear least-square regression models to determine the inhibition model and calculate the inhibitory constant (Ki).
Equations (2) and (3) (below) were used for data analysis and corresponded to the inhibition models that best fitted our data according to the SigmaPlot software 12 (Systat Software Inc., San Jose, CA, USA) [73]. […] Ki’ corresponds to the second inhibitor dissociation constant because, in a mixed model, the constants for E + I ↔ EI and ES + I ↔ ESI are different. Factor α, given by SigmaPlot (Systat Software Inc., San Jose, CA, USA), represents the equilibrium between Ki’ and Ki. (2) v =Vmax/1+(Km/[S])×(1+[I]/Ki) (3) v =Vmax/(1+[I]/Ki^’)+Km/[S]×(1+[I]/Ki)

α-amylase = tested on: α-amylase; design: method as in PMID 30050443; conditions: based on IC50 values; cited from earlier work
lipase = tested on: lipase; design: method as in PMID 36105167; conditions: based on IC50 values; cited from earlier work

T1 sequence (P53341 whole entry): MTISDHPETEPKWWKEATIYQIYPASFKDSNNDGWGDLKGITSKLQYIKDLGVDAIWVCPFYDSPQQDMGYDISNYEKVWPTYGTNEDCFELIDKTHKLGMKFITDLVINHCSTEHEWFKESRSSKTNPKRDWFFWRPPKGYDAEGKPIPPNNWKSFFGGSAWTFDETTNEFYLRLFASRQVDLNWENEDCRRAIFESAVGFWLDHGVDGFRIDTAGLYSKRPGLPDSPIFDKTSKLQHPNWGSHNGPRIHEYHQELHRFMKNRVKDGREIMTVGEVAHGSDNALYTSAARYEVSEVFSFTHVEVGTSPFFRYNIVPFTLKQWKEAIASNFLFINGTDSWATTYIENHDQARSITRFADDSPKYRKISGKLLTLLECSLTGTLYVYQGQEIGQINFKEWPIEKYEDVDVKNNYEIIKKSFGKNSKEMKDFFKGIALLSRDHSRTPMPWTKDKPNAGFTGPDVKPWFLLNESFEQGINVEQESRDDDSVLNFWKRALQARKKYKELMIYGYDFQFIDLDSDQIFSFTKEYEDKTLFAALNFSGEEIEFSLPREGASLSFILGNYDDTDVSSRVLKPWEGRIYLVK
T2 sequence (P53341 whole entry): as above

CC1OC(OC2C(O)COC(OC3C(C)OC(OC4C(OC(=O)C56CCC(C)(C)CC5C5=CCC7C8(C)CCC(OC9OC(CO)C(O)C(O)C9O)C(C)(CO)C8CCC7(C)C5(C)CC6O)OCC(O)C4O)C(O)C3O)C2O)C(O)C(O)C1O (stereo not drawn) [Chrysanthellin B]
inhibitory effect on α-glucosidase relative to acarbose [1]: five times lower
IC50 ([1]; PNPg substrate, pH 6.8, 37 °C, read-out: IC50 α-Glucosidase (converted)): 127 µM

O=C(/C=C/c1ccc(O)c(O)c1)O[C@@H]1C[C@](O)(C(=O)O)C[C@@H](O)[C@H]1O [Chlorogenic acid]
α-glucosidase inhibition mechanism (α-glucosidase [2]): mixed

CC1(C)CC[C@]2(C(=O)O)CC[C@]3(C)C(=CC[C@@H]4[C@@]5(C)CC[C@H](O)C(C)(C)[C@@H]5CC[C@]43C)[C@@H]2C1 [Oleanolic acid]
inhibitory activity on α-glucosidase, times higher than acarbose (α-glucosidase [2]): 162 times

C[C@H]1O[C@H](O[C@H]2[C@H](O)[C@@H](O)[C@@H](O[C@H]3[C@H](O)[C@@H](O)C(O)O[C@@H]3CO)O[C@@H]2CO)[C@H](O)[C@@H](O)[C@@H]1N[C@H]1C=C(CO)[C@@H](O)[C@H](O)[C@H]1O (stereo partly drawn) [Acarbose, acarbose]
α-glucosidase fluorescence intensity with increasing concentrations (α-glucosidase [3]): less obvious effect
Inhibition type ([4]; best-fitting model): Competitive (full)
Vmax ([4]; α-glucosidase in the presence of the inhibitor): 0.00182 mM/min

C/C=C1/[C@H](O[C@@H]2O[C@H](CO)[C@@H](O)[C@H](O)[C@H]2O)OC=C(C(=O)OC)[C@H]1CC(=O)OCCc1ccc(O)c(O)c1 [Oleuropein]
IC50 [1]: 5.74 µM

O=C(/C=C/c1ccc(O)c(O)c1)O[C@H]1[C@H](O)C[C@](O)(C(=O)O)C[C@H]1OC(=O)/C=C/c1ccc(O)c(O)c1 [4,5-dicaffeoylquinic acid]
inhibitory activity on α-amylase, times higher than acarbose (α-amylase): 11.4 times

O=c1cc(-c2ccc(O)c(O)c2)oc2cc(O[C@@H]3O[C@H](CO)[C@@H](O)[C@H](O)[C@H]3O)cc(O)c12 [luteolin-7-O-glucoside]
lipase inhibitory activity relative to orlistat (lipase): more than two times higher

O=C(/C=C/c1ccc(O)c(O)c1)O[C@@H]1CC(O)(C(=O)O)C[C@@H](OC(=O)/C=C/c2ccc(O)c(O)c2)C1O (stereo partly drawn) [3,5-dicaffeoylquinic acid]
inhibitory activity on α-amylase, times higher than acarbose (α-amylase): 9.4 times

O=C(/C=C/C=C/c1ccc2c(c1)OCO2)N1CCCCC1 [Piperine]
α-glucosidase inhibition mechanism (α-glucosidase [2]): mixed

O=C(/C=C/c1ccc(O)c(O)c1)O[C@@H]1C[C@@](OC(=O)/C=C/c2ccc(O)c(O)c2)(C(=O)O)C[C@@H](O)[C@@H]1O [cynarin]
inhibitory activity on α-amylase, times higher than acarbose (α-amylase): 4.8 times

O=C(/C=C/c1ccc(O)c(O)c1)O[C@@H]1[C@H](O)C[C@@](O)(C(=O)O)C[C@H]1OC(=O)/C=C/c1ccc(O)c(O)c1 [3,4-dicaffeoylquinic acid]
inhibitory activity on α-amylase, times higher than acarbose (α-amylase): 7.2 times

O=c1cc(-c2ccc(O)c(O)c2)oc2cc(O)cc(O)c12 [Luteolin]
IC50 [1]: 1.4 µM
α-glucosidase inhibition mechanism (α-glucosidase [2]): non-competitive

O=C1C[C@@H](c2ccc(O)c(O)c2)Oc2cc(O)cc(O)c21 [eriodictyol]
lipase inhibitory activity relative to orlistat (lipase): more than two times higher

O=C(/C=C/c1ccc(O)c(O)c1)O[C@@H]1C[C@](OC(=O)/C=C/c2ccc(O)c(O)c2)(C(=O)O)C[C@@H](O)[C@H]1O [1,5-dicaffeoylquinic acid]
inhibitory activity on α-amylase, times higher than acarbose (α-amylase): 6.2 times
